Results reported in ChEMBL document CHEMBL1133867, “Design, synthesis, and SAR of heterocycle-containing antagonists of the human CCR5 receptor for the treatment of HIV-1 infection” (Bioorg Med Chem Lett, 2001).
Each block holds one compound with its values, some of them ahead of it.

Key:
[1] = biological target: T1, C-C chemokine receptor type 5 (Homo sapiens, UniProt P51681); test: Binding affinity against C-C chemokine receptor type 5 stably expressed in Chinese hamster ovary (CHO) cells using [125I]-MIP-1 alpha as the radioligand; assay type: cell-based
[2] = biological target: T2, C-C chemokine receptor type 3 (Homo sapiens, UniProt P51677); test: Compound was evaluated for its inhibitory activity against C-C chemokine receptor type 3
T2 sequence (P51677 whole entry): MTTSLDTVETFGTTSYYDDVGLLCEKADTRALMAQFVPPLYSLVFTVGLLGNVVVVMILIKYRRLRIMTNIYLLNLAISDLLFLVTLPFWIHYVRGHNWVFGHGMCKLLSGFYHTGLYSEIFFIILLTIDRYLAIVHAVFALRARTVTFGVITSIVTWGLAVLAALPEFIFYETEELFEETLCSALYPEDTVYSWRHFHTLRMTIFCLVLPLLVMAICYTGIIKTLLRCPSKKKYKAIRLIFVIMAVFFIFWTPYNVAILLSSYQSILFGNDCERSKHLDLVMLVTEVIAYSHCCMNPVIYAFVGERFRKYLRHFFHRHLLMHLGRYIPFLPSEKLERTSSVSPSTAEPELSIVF

[3] = biological target: T3, C-C chemokine receptor type 1 (Homo sapiens, UniProt P32246); test: Compound was evaluated for inhibitory activity against C-C chemokine receptor type 1
T3 sequence (P32246 whole entry): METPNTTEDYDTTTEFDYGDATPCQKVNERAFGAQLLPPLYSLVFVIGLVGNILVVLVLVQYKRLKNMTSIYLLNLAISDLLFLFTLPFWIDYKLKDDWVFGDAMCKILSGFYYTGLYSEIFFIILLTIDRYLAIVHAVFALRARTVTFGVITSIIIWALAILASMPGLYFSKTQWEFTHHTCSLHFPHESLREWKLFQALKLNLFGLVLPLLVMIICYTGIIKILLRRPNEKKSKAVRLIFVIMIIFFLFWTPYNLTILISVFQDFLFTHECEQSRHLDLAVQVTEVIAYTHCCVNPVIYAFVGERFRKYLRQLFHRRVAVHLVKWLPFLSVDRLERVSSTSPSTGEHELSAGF

[4] = biological target: C-X-C chemokine receptor type 4 (Homo sapiens, UniProt P61073); test: Compound was evaluated for its inhibitory activity against C-X-C chemokine receptor type 4
[5] = biological target: C-C chemokine receptor type 2 (Homo sapiens, UniProt P41597); test: Compound was evaluated for its inhibitory activity against C-C chemokine receptor type 2
[6] = biological target: T4, C-C chemokine receptor type 4 (Homo sapiens, UniProt P51679); test: Compound was evaluated for its inhibitory activity against C-C chemokine receptor type 4
T4 sequence (P51679 whole entry): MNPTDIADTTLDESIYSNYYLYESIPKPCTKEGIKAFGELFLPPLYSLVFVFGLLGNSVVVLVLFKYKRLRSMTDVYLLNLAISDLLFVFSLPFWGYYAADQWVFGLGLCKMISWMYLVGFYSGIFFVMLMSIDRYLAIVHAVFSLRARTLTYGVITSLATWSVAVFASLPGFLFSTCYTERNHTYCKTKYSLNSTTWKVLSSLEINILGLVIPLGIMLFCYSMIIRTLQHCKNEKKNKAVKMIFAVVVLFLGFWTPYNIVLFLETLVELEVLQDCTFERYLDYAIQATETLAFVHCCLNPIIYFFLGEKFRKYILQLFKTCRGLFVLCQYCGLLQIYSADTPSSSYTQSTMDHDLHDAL

HeLa = test: Antiviral activity against HeLa Magi cells expressing both CXCR4 and CCR5 in a 48 hr single cycle HIV (BAL) infection assay; assay type: functional; conditions: Homo sapiens
[7] = Oral bioavailability in rat; assay type: ADME, organism-based; conditions: in vivo
[8] = Clearance in rat.; assay type: ADME, organism-based; conditions: in vivo
[9] = biological target: T1, C-C chemokine receptor type 5; test: Binding affinity against human CCR5 receptor stably expressed in Chinese hamster ovary (CHO) cells using [125I]-MIP-1 alpha as the radioligand; assay type: cell-based

Chain of C-C chemokine receptor type 2 (P41597 whole entry): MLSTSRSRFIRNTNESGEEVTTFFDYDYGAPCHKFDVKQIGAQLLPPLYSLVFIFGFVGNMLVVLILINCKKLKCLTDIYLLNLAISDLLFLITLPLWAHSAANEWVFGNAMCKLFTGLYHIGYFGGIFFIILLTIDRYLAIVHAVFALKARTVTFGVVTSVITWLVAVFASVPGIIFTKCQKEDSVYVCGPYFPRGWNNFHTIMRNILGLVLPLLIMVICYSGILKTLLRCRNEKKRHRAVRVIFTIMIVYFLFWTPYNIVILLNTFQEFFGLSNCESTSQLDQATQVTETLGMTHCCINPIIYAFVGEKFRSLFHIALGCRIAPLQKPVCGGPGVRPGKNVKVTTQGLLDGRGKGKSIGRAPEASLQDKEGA
Chain of C-X-C chemokine receptor type 4 (P61073 whole entry): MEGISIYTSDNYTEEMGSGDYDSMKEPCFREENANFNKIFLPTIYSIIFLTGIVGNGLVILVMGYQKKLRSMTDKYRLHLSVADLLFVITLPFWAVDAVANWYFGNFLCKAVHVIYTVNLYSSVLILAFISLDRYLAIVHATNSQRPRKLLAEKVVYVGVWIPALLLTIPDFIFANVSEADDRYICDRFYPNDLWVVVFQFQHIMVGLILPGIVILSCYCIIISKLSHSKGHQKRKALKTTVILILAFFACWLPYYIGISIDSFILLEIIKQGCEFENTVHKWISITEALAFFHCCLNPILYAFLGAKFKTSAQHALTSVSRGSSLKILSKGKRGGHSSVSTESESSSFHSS
T1 sequence (P51681 whole entry): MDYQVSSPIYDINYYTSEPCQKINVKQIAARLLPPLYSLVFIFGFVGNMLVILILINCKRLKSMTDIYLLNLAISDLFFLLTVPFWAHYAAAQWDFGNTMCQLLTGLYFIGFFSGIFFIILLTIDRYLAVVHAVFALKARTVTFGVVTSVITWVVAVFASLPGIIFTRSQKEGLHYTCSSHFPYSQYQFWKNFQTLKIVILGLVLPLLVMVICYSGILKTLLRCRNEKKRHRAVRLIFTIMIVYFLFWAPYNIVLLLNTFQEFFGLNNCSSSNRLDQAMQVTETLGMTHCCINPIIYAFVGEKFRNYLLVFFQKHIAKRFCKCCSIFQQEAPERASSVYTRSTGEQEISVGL

IC50 [1]: 111 nM
Compound: C=CCN(C(=O)OCc1ccc([N+](=O)[O-])cc1)C1CCN(CCC(Cn2nnc(-c3ccccc3)n2)c2ccccc2)CC1 (stereo not drawn)

IC50 [2]: > 1000 nM | IC50 [3]: > 1000 nM | IC50 [4]: > 1000 nM | IC50 [1]: 25 nM | IC50 [5]: > 1000 nM | IC50 [6]: > 1000 nM | IC90 (HeLa): > 3000 nM
Compound: C=CCN(C(=O)OCc1ccccc1)C1CCN(CCC(Cn2cnc3ccccc32)c2ccccc2)CC1 (stereo not drawn)

bioavailability [7]: 1% | clearance [8]: 84 mL/min/kg
Compound: C=CCN(C(=O)OCc1ccccc1)C1CCN(CCC(C)(CN2C(=O)N[C@H](Cc3c[nH]c4ccccc34)C2=O)c2ccccc2)CC1 (stereo partly drawn)

IC50 [1]: 335 nM
Compound: C=CCN(C(=O)OCc1ccc([N+](=O)[O-])cc1)C1CCN(CCC(Cn2nnnc2-c2ccccc2)c2ccccc2)CC1 (stereo not drawn)

IC50 [2]: > 1000 nM | IC50 [3]: > 1000 nM | IC50 [4]: > 1000 nM | IC50 [1]: 10 nM | IC50 [5]: > 1000 nM | IC50 [6]: > 1000 nM | IC90 (HeLa): 1000 nM
Compound: C=CCN(C(=O)OCc1ccc([N+](=O)[O-])cc1)C1CCN(CCC(C)(Cn2cnc3ccccc32)c2ccccc2)CC1 (stereo not drawn)

IC50 [1]: 16 nM
Compound: C=CCN(C(=O)OCc1ccc([N+](=O)[O-])cc1)C1CCN(CCC(Cn2cnc(Cl)c2Cl)c2ccccc2)CC1 (stereo not drawn)

IC50 [1]: 28 nM
Compound: C=CCN(C(=O)OCc1ccc([N+](=O)[O-])cc1)C1CCN(CCC(Cn2cncn2)c2ccccc2)CC1 (stereo not drawn)

IC50 [2]: > 1000 nM | IC50 [3]: > 1000 nM | IC50 [4]: > 1000 nM | IC50 [1]: 112 nM | IC50 [5]: > 1000 nM | IC50 [6]: > 1000 nM
Compound: C=CCN(C(=O)OCc1ccccc1)C1CCN(CCC(C)(Cn2cnc3ccccc32)c2ccccc2)CC1 (stereo not drawn)

IC50 [1]: 27 nM
Compound: C=CCN(C(=O)OCc1ccc([N+](=O)[O-])cc1)C1CCN(CCC(Cn2cc3ccccc3n2)c2ccccc2)CC1 (stereo not drawn)

bioavailability [7]: 14% | clearance [8]: 49 mL/min/kg | IC50 [2]: > 1000 nM | IC50 [3]: > 1000 nM | IC50 [4]: > 1000 nM | IC50 [1]: 4 nM | IC50 [5]: > 1000 nM | IC50 [6]: > 1000 nM | IC90 (HeLa): 1000 nM
Compound: C=CCN(C(=O)OCc1ccc([N+](=O)[O-])cc1)C1CCN(CCC(Cn2cnc3ccccc32)c2ccccc2)CC1 (stereo not drawn)

IC50 [1]: 15 nM
Compound: C=CCN(C(=O)OCc1ccc([N+](=O)[O-])cc1)C1CCN(CCC(Cn2cnc(CC#N)c2)c2ccccc2)CC1 (stereo not drawn)

IC50 [2]: > 1000 nM | IC50 [3]: > 1000 nM | IC50 [4]: > 1000 nM | IC50 [1]: 48 nM | IC50 [5]: > 1000 nM | IC50 [6]: > 1000 nM | IC90 (HeLa): 3000 nM
Compound: C=CCN(C(=O)OCc1ccc([N+](=O)[O-])cc1)C1CCN(CCC(Cn2c(CC)nc3ccccc32)c2ccccc2)CC1 (stereo not drawn)

IC50 [1]: 23 nM
Compound: C=CCN(C(=O)OCc1ccc([N+](=O)[O-])cc1)C1CCN(CCC(Cn2cnc(-c3ccccc3)c2)c2ccccc2)CC1 (stereo not drawn)

IC50 [2]: > 1000 nM | IC50 [3]: > 1000 nM | IC50 [4]: > 1000 nM | IC50 [1]: 246 nM | IC50 [5]: > 1000 nM | IC50 [6]: > 1000 nM
Compound: C=CCN(C(=O)OCc1ccccc1)C1CCN(CCC(Cn2c(CC)nc3ccccc32)c2ccccc2)CC1 (stereo not drawn)

Compound: C=CCN(C(=O)OCc1ccc([N+](=O)[O-])cc1)C1CCN(CCC(Cn2cnc([N+](=O)[O-])c2)c2ccccc2)CC1 (stereo not drawn)
IC50 [1]: 15 nM

IC50 [1]: 15 nM
Compound: C=CCN(C(=O)OCc1ccc([N+](=O)[O-])cc1)C1CCN(CCC(Cn2ncc3ccccc32)c2ccccc2)CC1 (stereo not drawn)

IC50 [9]: 35 nM
Compound: CN(C[C@@H](CCN1CCC2(CC1)C[S+]([O-])c1ccccc12)c1cccc(Cl)c1)S(=O)(=O)c1ccccc1 (stereo partly drawn)

IC50 [1]: 55 nM
Compound: C=CCN(C(=O)OCc1ccccc1)C1CCN(CCC(C)(c2ccccc2)C2Nc3ccccc3S(=O)(=O)N2)CC1 (single isomer, unassigned)

IC50 [1]: 18 nM
Compound: C=CCN(C(=O)OCc1ccc([N+](=O)[O-])cc1)C1CCN(CCC(C)(c2ccccc2)C2c3ccccc3C(=O)N2CC)CC1 (single isomer, unassigned; form 1)

IC50 [1]: 10 nM
Compound: C=CCN(C(=O)OCc1ccc([N+](=O)[O-])cc1)C1CCN(CCC(C)(c2ccccc2)C2c3ccccc3C(=O)N2CC)CC1 (single isomer, unassigned; form 2)

IC50 [1]: 18 nM
Compound: C=CCN(C(=O)OCc1ccccc1)C1CCN(CCC(C)(c2ccccc2)C2Nc3ccccc3S(=O)(=O)N2)CC1 (stereo in doubt)
